The results in this text go back to patent publication US10660789B2, “1,4-dihydropyridine derivatives with HSP modulating activity” (Richter Gedeon NYRT., priority 2011, dated 2020).

Test [1] deals with Hsp25. Put plainly: Other in vitro effects, Hsp25 (Table 3). Also on record: key: +: co-inducing activity; −: silencing activity; 0: with the experimental methods applied no other HSP modulating effects could be identified. The test is classed as cell-based, mouse and human. The procedure: The Hsp co-inducing effect of the compounds on stress response was tested on B16 mouse melanoma and SHSY5Y human neuroblastoma cell lines stably transfected with Hsp promoter probing plasmids. This kind of promoter probing, using the promoter region of a given gene conjugated with fluorescent protein is used as a best and fastest test system for finding drugs which modulate the activity of the gene followed by the given promoter (Wyshocka et al., Mol. Cel. Biochem. 215:153-156, 2000).
Reporter plasmids, containing the Hsp70 and/or Hsp25 promoter conjugated to either YFP or GFP (yellow or green fluorescent protein), were stably transfected into the cells and the expression of YFP or GFP was followed by flow cytometry. Cells were either kept at 37° C. or exposed to heat shock at 42° C. for 1 hour followed by a 16 hour recovery period at 37° C. in the presence or absence of different concentrations of the test compound. After recovery the expression of YFP or GFP which is in straight correlation with the promoter activity of Hsp70 or Hsp27 genes was followed by measuring the fluorescence intensity of the cells by flow cytometry. Fluorescence intensity is in straight correlation with the amount of fluorescent protein (GFP or YFP) produced under the control of hsp promoter. The mean fluorescence intensity of YFP or GFP produced is shown as “Hsp promoter activity”.
Cells were homogenously distributed on 6-well plates in 1×10^5 cells/well density. B16-pHsp25-GFP and B16-pHsp70-YFP melanoma cells were grown in RPMI-1640 medium supplemented with 10% Fetal bovine serum (FBS), penicillin (200 units/ml), streptomycin (200 μg/ml) and 2 mM L-Glutamine. […] The changes in cells' fluorescence were detected using BD FACSCalibur flow cytometer.
SY-SY5Y and B16 cells were extracted in NP-40 lysis buffer (PBS pH 7.4, 1% protease inhibitor coctail and 1% Triton X-100). […] The immune complexes were detected with chemo-luminescent substrate of peroxidase according to the supplier's instructions. Images taken from the membranes were analyzed using AlphaEase FC software.

Test [2] has as its system SKH-1 hairless mice. Put plainly: UVB induced skin edema in SKH-1 hairless mice. It is filed as in vivo, mouse. As to the method:
To evaluate the effects of systemic administration of Ex. 23 on UVB induced edema 16 SKH-1 hairless mice were divided into two groups of 8 animals each. Group 1 mice (Control) were exposed to 230 mJ/cm^2 UVB consecutively for 2 days (a total cumulative UVB dose of 460 mJ/cm^2), which evoked edema as described by Athar et al. (Tox. Appl. Pharmacol. 195: 370-378, 2004). Group 2 mice received Ex 23. (10 mg/kg) intraperitoneally 30 min before the first UV treatment. The administration of the compound Ex. 23 was repeated 24 and 48 hours later. UVB-induced skin edema was monitored by measuring the increase in dorsal skin thickness using an ultrasound skin scanner (22 MHz).

The subject of test [3] is B16F10 melanoma cells. Put plainly: Lysosomal destabilization, FITC-conjugated dextran fluorescence. It is filed as cell-based, mouse. The source says: Emerging evidence argues that both classic apoptosis pathways and lysosomal death pathways must be suppressed for effective development and progression of cancer. Tumor invasion and metastasis are associated with altered lysosomal trafficking and increased expression of the lysosomal proteases termed cathepsins. […] Normal cells respond to death stimuli by undergoing caspase-dependent apoptosis, the best characterized form of programmed cell death. In contrast, cancer cells frequently escape spontaneous and therapy-induced caspase activation due to acquired mutations in the apoptotic machinery. Apoptosis-resistant cancer cells are, however, not completely resistant to cell death, but can die via alternative cell death pathways often involving non-caspase proteases such as lysosomal cathepsins. Therefore, development of novel anticancer drugs that can trigger alternative death pathways that are independent of commonly mutated apoptosis-regulating genes is of great importance. […] Lysosomal destabilization could be followed by measuring the fluorescence intensity of the pH sensitive FITC-conjugated dextran. Lysosomal pH was determined by allowing the B16F10 melanoma cells to endocytose different amount of FITC-conjugated dextran (40 kDa) (from 10 mg/ml stock) for 24 h. […] Fluorescence was measured by plate reader using an excitation and emission wavelengths of 485 nm and 538 nm respectively.

Where a name gives a salt, the structure may show the parent alone.

`COC(=O)C1=C(CCN(C)C)N(C)C(CCN(C)C)=C(C(=O)OC)C1c1ccc(C(F)(F)F)cc1` [Example 23, Dimethyl 4-(4-trifuoromethylphenyl)-2,6-bis-(2-dimethylaminoethyl)-1-methyl-1,4-dihydropyridine-3,5-dicarboxylate dihydrochloride]: in test [1], the “Other in vitro effects: Hsp25” value is on record as “Hsp25 0”. The “UVB induced skin edema (increase in skin thickness)” value in test [2] (10 mg/kg i.p. 30 min before first UV, repeated 24 and 48 hours later, FIG. 7) is “substantially protected against edema formation”. In addition, in test [2] (model in which efficacy was shown), the In vivo efficacy entry is recorded as “UVB protection”. In addition, the “Other in vitro effects (lysosomes)” value in test [3] is “lysosome destabilization”. Also, the “fluorescence intensity of FITC-conjugated dextran (lysosomal pH, lysosomal destabilization)” value in test [3] (Ex. 23 5 μM for 6 hours, compared to Siramesine (20 μm), FIG. 9) was “significantly higher fluorescence intensity”.
